These results are taken from patent US20230391772A1, “METHODS AND COMPOSITIONS FOR TARGETED PROTEIN DEGRADATION” (Ranok Therapeutics (Hangzhou) Co. Ltd., priority 2020, published 2023).

pEC50, pIC50: −log10 of the molar value. Bounds are passed on as bounds.

The target in one test is T1, HSP90a protein (Homo sapiens, UniProt P07900).
T1 construct: purchased BPS Bioscience 50298
Briefly: HSP90α-binding fluorescent polarization (FP) assay, BODIPY-labeled RNK04010 probe. The note with it: FP competition with RNK04010 (BODIPY-labeled), 5 nM, 300 min at 25° C. Put shortly:
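N-terminal HSP90a construct; tracer 5 nM final (FITC-geldanamycin or BODIPY-RNK04010, a labeled triazolone binder). Compounds 20 μM–5.2 nM, 2.5-fold steps. 25° C, 120 min (FITC) / 300 min (BODIPY). FP readout.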

The test system of test [1] is MIA PaCa-2 human pancreatic carcinoma. Kind of test: MIA PaCa-2 CCK-8 proliferation assay. The class given is cell-based. The note with it: Homo sapiens, MIA PaCa-2, 72 h, MIA PaCa-2 cells. Put shortly:
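Three KRAS(G12C) lines are used, MIA PaCa-2 at two mutant copies and the NSCLC lines NCI-H358 and NCI-H23 at one. Each compound is titrated 3-fold from 20 μM to 1.02 nM, and proliferation is scored by CCK-8.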

The next test has as its target KRAS(G12C) (Homo sapiens, UniProt P01116, G12C). Kind of test: KRAS(G12C)/SOS1 homogeneous time-resolved fluorescence (HTRF) assay. More on the design: purchased Cisbio 63ADK000CB16PEG. The conditions noted are these: absence of GTP, 4° C. for 3 hr, read-out: KRAS (G12C) binding. As to the method:
KRAS(G12C)/SOS1 Homogeneous Time-Resolved Fluorescence (HTRF) Assay
Binding of test compounds to KRAS(G12C) protein, which in turn blocks KRAS(G12C) interaction with the SOS1 protein, was measured in the absences of GTP by homogeneous time-resolved fluorescence (HTRF) using the KRAS-G12C/SOS1 Binding Assay Kit (Cisbio, #63ADK000CB16PEG), following the manufacturer's instructions, except as noted. 3-fold serial dilutions of each test compound were prepared ranging from […] to 1.02 nM. The test compound was mixed and incubated with reaction components, incubated in a sealed plate at 4° C. for 3 hr and fluorescence was measured using a PerkinElmer Envision plate reader.
In general terms: Time-resolved FRET reads energy transfer from a long-lived donor to a nearby acceptor.

Chain of KRAS(G12C) (P01116 1-188 isoform P01116-2 G12C): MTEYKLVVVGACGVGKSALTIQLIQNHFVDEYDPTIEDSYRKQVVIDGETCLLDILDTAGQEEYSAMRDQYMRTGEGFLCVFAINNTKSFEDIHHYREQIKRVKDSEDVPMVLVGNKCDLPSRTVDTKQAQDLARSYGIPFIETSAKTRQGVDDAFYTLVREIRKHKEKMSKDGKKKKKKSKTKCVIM

One may read the pEC50 as the negative decadic logarithm of the EC50, by convention in mol/L. A lower pEC50 goes with a large EC50. For the compound `C=CC(=O)N1CCN(c2nc(OC[C@@H]3CN(C(=O)C4CCN(Cc5ccc(-n6c(O)nnc6-c6cc(C(C)C)c(O)cc6O)cc5)CC4)CCN3C)nc3c2CCN(c2cccc4cccc(Cl)c24)C3)C[C@@H]1CC#N` [Compound 202, 2-((S)-1-acryloyl-4-(7-(8-chloronaphthalen-1-yl)-2-(((S)-4-(1-(4-(3-(2,4-dihydroxy-5-isopropylphenyl)-5-hydroxy-4H-1,2,4-triazol-4-yl)benzyl)piperidine-4-carbonyl)-1-methylpiperazin-2-yl)methoxy)-5,6,7,8-tetrahydropyrido[3,4-d]pyrimidin-4-yl)piperazin-2-yl)acetonitrile, trifluoroacetic acid], the pIC50 is over 7.00 at HSP90a protein and 6.00 to 7.00 at KRAS(G12C). Moreover, the pEC50 in test [1] is under 6.00.

`C=CC(=O)N1CCN(c2nc(OC[C@@H]3CN(C(=O)C4CCN(Cc5ccc(-n6c(O)nnc6-c6cc(C)c(O)cc6O)cc5)CC4)CCN3C)nc3c2CCN(c2cccc4cccc(Cl)c24)C3)C[C@@H]1CC#N` [Compound 203, 2-((S)-1-acryloyl-4-(7-(8-chloronaphthalen-1-yl)-2-(((S)-4-(1-(4-(3-(2,4-dihydroxy-5-methylphenyl)-5-hydroxy-4H-1,2,4-triazol-4-yl)benzyl)piperidine-4-carbonyl)-1-methylpiperazin-2-yl)methoxy)-5,6,7,8-tetrahydropyrido[3,4-d]pyrimidin-4-yl)piperazin-2-yl)acetonitrile, trifluoroacetic acid]: the pIC50 on HSP90a protein is over 7.00; on KRAS(G12C) it was 6.00 to 7.00. The same compound gave a negative-log EC50 (pEC50) in test [1] of under 6.00.

Consider `C=CC(=O)N1CCN(c2nc(OC[C@@H]3C[C@@H](NC(=O)C4CCN(Cc5ccc(-n6c(O)nnc6-c6cc(C(C)C)c(O)cc6O)cc5)CC4)CN3C)nc3c2CCN(c2cccc4cccc(Cl)c24)C3)C[C@@H]1CC#N` [Compound 205, N-((3R,5S)-5-(((4-((S)-4-acryloyl-3-(cyanomethyl)piperazin-1-yl)-7-(8-chloronaphthalen-1-yl)-5,6,7,8-tetrahydropyrido[3,4-d]pyrimidin-2-yl)oxy)methyl)-1-methylpyrrolidin-3-yl)-1-(4-(3-(2,4-dihydroxy-5-isopropylphenyl)-5-hydroxy-4H-1,2,4-triazol-4-yl)benzyl)piperidine-4-carboxamide], for which the pIC50 on HSP90a protein is over 7.00; on KRAS(G12C) it was 6.00 to 7.00. The same compound gave a pEC50 in test [1] of 6.00 to 7.00.

As to `C=C(F)C(=O)N1CCN(c2nc(OCCN3CCN(C(=O)C4CCN(Cc5ccc(-n6c(C(=O)NCC(F)(F)F)nnc6-c6cc(C(C)C)c(O)cc6O)cc5)CC4)CC3)nc3c2CCN(c2cccc4cccc(Cl)c24)C3)C[C@@H]1CC#N` [Compound 207, (S)-4-(4-((4-(4-(2-((7-(8-chloronaphthalen-1-yl)-4-(3-(cyanomethyl)-4-(2-fluoroacryloyl)piperazin-1-yl)-5,6,7,8-tetrahydropyrido[3,4-d]pyrimidin-2-yl)oxy)ethyl)piperazine-1-carbonyl)piperidin-1-yl)methyl)phenyl)-5-(2,4-dihydroxy-5-isopropylphenyl)-N-(2,2,2-trifluoroethyl)-4H-1,2,4-triazole-3-carboxamide], the pIC50 is over 7.00 on HSP90a protein and 6.00 to 7.00 on KRAS(G12C). Moreover, the pEC50 in test [1] was over 7.00.

As for `CCC(=O)N1CCN(c2nc(OCCN3CCN(C(=O)C4CCN(Cc5ccc(-n6c(C(=O)NCC(F)(F)F)nnc6-c6cc(C(C)C)c(O)cc6O)cc5)CC4)CC3)nc3c2CCN(c2cccc4cccc(Cl)c24)C3)C[C@@H]1CC#N` [Compound 208, (S)-4-(4-((4-(4-(2-((7-(8-chloronaphthalen-1-yl)-4-(3-(cyanomethyl)-4-propionylpiperazin-1-yl)-5,6,7,8-tetrahydropyrido[3,4-d]pyrimidin-2-yl)oxy)ethyl)piperazine-1-carbonyl)piperidin-1-yl)methyl)phenyl)-5-(2,4-dihydroxy-5-isopropylphenyl)-N-(2,2,2-trifluoroethyl)-4H-1,2,4-triazole-3-carboxamide], the pIC50 on HSP90a protein is over 7.00; at KRAS(G12C) it was under 6.00. Besides, in test [1], the pEC50 is over 7.00.

On to `C=CC(=O)N1CCN(c2nc(OCCN3CCC4(CC3)CCN(C(=O)C3CCN(Cc5ccc(-n6c(C(=O)NCC(F)(F)F)nnc6-c6cc(C(C)C)c(O)cc6O)cc5)CC3)CC4)nc3c2CCN(c2cccc4cccc(Cl)c24)C3)C[C@@H]1CC#N` [Compound 209, (S)-4-(4-((4-(9-(2-((4-(4-acryloyl-3-(cyanomethyl)piperazin-1-yl)-7-(8-chloronaphthalen-1-yl)-5,6,7,8-tetrahydropyrido[3,4-d]pyrimidin-2-yl)oxy)ethyl)-3,9-diazaspiro[5.5]undecane-3-carbonyl)piperidin-1-yl)methyl)phenyl)-5-(2,4-dihydroxy-5-isopropylphenyl)-N-(2,2,2-trifluoroethyl)-4H-1,2,4-triazole-3-carboxamide], for which the pIC50 at HSP90a protein and on KRAS(G12C) was over 7.00 throughout. Besides, in test [1], the negative-log EC50 (pEC50) is over 7.00.

With `C=CC(=O)N1CCN(c2nc(OCCN3CCC4(CC3)CCN(C(=O)C3CCN(Cc5ccc(-n6c(C(N)=O)nnc6-c6cc(C(C)C)c(O)cc6O)cc5)CC3)CC4)nc3c2CCN(c2cccc4cccc(Cl)c24)C3)C[C@@H]1CC#N` [Compound 210, (S)-4-(4-((4-(9-(2-((4-(4-acryloyl-3-(cyanomethyl)piperazin-1-yl)-7-(8-chloronaphthalen-1-yl)-5,6,7,8-tetrahydropyrido[3,4-d]pyrimidin-2-yl)oxy)ethyl)-3,9-diazaspiro[5.5]undecane-3-carbonyl)piperidin-1-yl)methyl)phenyl)-5-(2,4-dihydroxy-5-isopropylphenyl)-4H-1,2,4-triazole-3-carboxamide], the pIC50 on HSP90a protein and on KRAS(G12C) was over 7.00 each time. The compound also showed a pEC50 in test [1] of over 7.00.

Turning to `C=CC(=O)N1CCN(c2nc(OCCN3CCC(C(=O)N4CCC(Cc5ccc(-n6c(O)nnc6-c6cc(C(C)C)c(O)cc6O)cc5)CC4)CC3)nc3c2CCN(c2cccc4cccc(Cl)c24)C3)C[C@@H]1CC#N` [Compound 211, (S)-2-(1-acryloyl-4-(7-(8-chloronaphthalen-1-yl)-2-(2-(4-(4-(4-(3-(2,4-dihydroxy-5-isopropylphenyl)-5-hydroxy-4H-1,2,4-triazol-4-yl)benzyl)piperidine-1-carbonyl)piperidin-1-yl)ethoxy)-5,6,7,8-tetrahydropyrido[3,4-d]pyrimidin-4-yl)piperazin-2-yl)acetonitrile], the results for the pIC50 at HSP90a protein and at KRAS(G12C) were over 7.00 and 6.00 to 7.00, respectively. Moreover, in test [1], the pEC50 is under 6.00.

On to `C=CC(=O)N1CCN(c2nc(OCCN3CCC(C(=O)N4CCC(Cc5ccc(-n6c(C(=O)NCC(F)(F)F)nnc6-c6cc(C(C)C)c(O)cc6O)cc5)CC4)CC3)nc3c2CCN(c2cccc4cccc(Cl)c24)C3)C[C@@H]1CC#N` [Compound 212, (S)-4-(4-((1-(1-(2-((4-(4-acryloyl-3-(cyanomethyl)piperazin-1-yl)-7-(8-chloronaphthalen-1-yl)-5,6,7,8-tetrahydropyrido[3,4-d]pyrimidin-2-yl)oxy)ethyl)piperidine-4-carbonyl)piperidin-4-yl)methyl)phenyl)-5-(2,4-dihydroxy-5-isopropylphenyl)-N-(2,2,2-trifluoroethyl)-4H-1,2,4-triazole-3-carboxamide], for which the pIC50 on HSP90a protein was over 7.00; on KRAS(G12C) it was 6.00 to 7.00. In addition, the pEC50 in test [1] was 6.00 to 7.00.

With `C=CC(=O)N1CCN(c2nc(OC[C@@H]3C[C@H](NC(=O)C4CCN(Cc5ccc(-n6c(O)nnc6-c6cc(C(C)C)c(O)cc6O)cc5)CC4)CN3C)nc3c2CCN(c2cccc4cccc(Cl)c24)C3)C[C@@H]1CC#N` [Compound 214, N-((3S,5S)-5-(((4-((S)-4-acryloyl-3-(cyanomethyl)piperazin-1-yl)-7-(8-chloronaphthalen-1-yl)-5,6,7,8-tetrahydropyrido[3,4-d]pyrimidin-2-yl)oxy)methyl)-1-methylpyrrolidin-3-yl)-1-(4-(3-(2,4-dihydroxy-5-isopropylphenyl)-5-hydroxy-4H-1,2,4-triazol-4-yl)benzyl)piperidine-4-carboxamide], the pIC50 at HSP90a protein and on KRAS(G12C) was over 7.00 throughout. Besides, the pEC50 in test [1] was 6.00 to 7.00.

For the compound `C=CC(=O)N1CCN(c2nc(OC[C@@H]3C[C@@H](NCc4ccc(-n5c(O)nnc5-c5cc(C(C)C)c(O)cc5O)cc4)CN3C)nc3c2CCN(c2cccc4cccc(Cl)c24)C3)C[C@@H]1CC#N` [Compound 215, 2-((S)-1-acryloyl-4-(7-(8-chloronaphthalen-1-yl)-2-(((2S,4R)-4-((4-(3-(2,4-dihydroxy-5-isopropylphenyl)-5-hydroxy-4H-1,2,4-triazol-4-yl)benzyl)amino)-1-methylpyrrolidin-2-yl)methoxy)-5,6,7,8-tetrahydropyrido[3,4-d]pyrimidin-4-yl)piperazin-2-yl)acetonitrile], the figures for the pIC50 at HSP90a protein and on KRAS(G12C) were over 7.00 and 6.00 to 7.00, respectively. This compound also had a pEC50 in test [1] of 6.00 to 7.00.
